Measurements as given in ChEMBL document CHEMBL1155509, “3-Indolyl sultams as selective CRTh2 antagonists” (Bioorg Med Chem Lett, 2010).

Columns and labels:
[1] = molecular target: T1, Prostaglandin D2 receptor 2 (Homo sapiens, UniProt Q9Y5Y4); test: Binding affinity to human prostaglandin D2 receptor by cell based radioligand displacement assay
T1 sequence (Q9Y5Y4 whole entry): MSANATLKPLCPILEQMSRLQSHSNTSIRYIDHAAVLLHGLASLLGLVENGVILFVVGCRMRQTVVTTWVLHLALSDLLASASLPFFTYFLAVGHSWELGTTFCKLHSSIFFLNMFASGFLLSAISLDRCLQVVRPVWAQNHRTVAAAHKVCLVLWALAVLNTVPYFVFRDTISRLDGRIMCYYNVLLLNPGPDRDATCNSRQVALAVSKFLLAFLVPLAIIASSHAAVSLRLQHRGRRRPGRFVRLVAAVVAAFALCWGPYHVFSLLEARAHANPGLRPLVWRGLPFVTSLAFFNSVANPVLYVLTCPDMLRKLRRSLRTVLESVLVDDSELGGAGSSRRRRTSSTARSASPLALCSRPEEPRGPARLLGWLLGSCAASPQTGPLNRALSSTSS

[2] = molecular target: T2, Prostaglandin D2 receptor (Homo sapiens) (UniProt Q13258); test: Binding affinity to human prostaglandin D1 receptor at 10 uM by radioligand displacement assay
T2 sequence (whole entry): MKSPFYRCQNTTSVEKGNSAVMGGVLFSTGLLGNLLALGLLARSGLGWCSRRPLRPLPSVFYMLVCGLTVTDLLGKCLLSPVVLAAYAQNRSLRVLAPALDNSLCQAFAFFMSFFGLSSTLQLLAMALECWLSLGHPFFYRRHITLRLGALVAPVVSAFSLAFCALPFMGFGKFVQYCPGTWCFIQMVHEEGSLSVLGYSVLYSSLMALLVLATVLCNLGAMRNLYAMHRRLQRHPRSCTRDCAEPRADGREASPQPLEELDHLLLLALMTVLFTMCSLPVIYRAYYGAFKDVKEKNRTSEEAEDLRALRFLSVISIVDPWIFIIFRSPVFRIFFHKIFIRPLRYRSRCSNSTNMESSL

Thromboxane A2 receptor = molecular target: T3, Thromboxane A2 receptor (Homo sapiens, UniProt P21731); test: Binding affinity to human thromboxane A2 receptor by radioligand displacement assay
T3 sequence (P21731 whole entry): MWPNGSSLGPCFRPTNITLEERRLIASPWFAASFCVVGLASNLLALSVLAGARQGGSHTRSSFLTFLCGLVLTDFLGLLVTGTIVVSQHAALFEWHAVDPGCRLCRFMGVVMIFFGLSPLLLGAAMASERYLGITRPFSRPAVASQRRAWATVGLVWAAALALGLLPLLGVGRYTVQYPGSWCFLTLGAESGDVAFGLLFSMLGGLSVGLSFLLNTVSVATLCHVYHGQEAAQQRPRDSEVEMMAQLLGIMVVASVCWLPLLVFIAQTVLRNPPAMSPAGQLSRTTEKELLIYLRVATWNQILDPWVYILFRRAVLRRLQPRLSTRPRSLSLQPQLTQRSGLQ

[3] = molecular target: T4, Thromboxane A2 receptor (Homo sapiens) (UniProt P21731); test: Binding affinity to human thromboxane A2 receptor at 10 uM by radioligand displacement assay
T4 sequence (whole entry): T3 sequence (P21731 whole entry)

[4] = molecular target: T1, Prostaglandin D2 receptor 2; test: Antagonist activity at human prostaglandin D2 receptor assessed as inhibition of PGD2-induced receptor activation by cell based FLIPR assay; assay type: functional

Row | Compound | Ki [1] | other results
1 | Cc1noc(C)c1CN1C(c2c(C)n(CC(=O)O)c3ccccc23)CCS1(=O)=O (racemic) | 23 nM | –
2 | Cc1ccc2c(c1)c(C1NS(=O)(=O)c3ccccc31)c(C)n2CC(=O)O (racemic) | 1500 nM | –
3 | Cc1noc(C)c1CN1C(c2cn(CC(=O)O)c3ccccc23)c2ccccc2S1(=O)=O (racemic) | 18 nM | –
4 | Cc1c(C2NS(=O)(=O)c3ccccc32)c2cc(Cl)ccc2n1CC(=O)O (racemic) | 690 nM | –
5 | Cc1c(C2c3ccccc3S(=O)(=O)N2CCOc2ccc(Cl)cc2)c2ccccc2n1CC(=O)O (racemic) | 35 nM | inhibition [2]: 28%; Ki (Thromboxane A2 receptor): 3400 nM
6 | O=C(O)Cn1cc(C2NS(=O)(=O)c3ccccc32)c2ccccc21 (racemic) | 9200 nM | –
7 | Cc1ccc2c(c1)c(C1NS(=O)(=O)c3ccccc31)cn2CC(=O)O (racemic) | 2900 nM | –
8 | O=C(O)Cn1cc(C2NS(=O)(=O)c3ccccc32)c2cc(Cl)ccc21 (racemic) | 2900 nM | –
9 | Cc1c(C2c3ccccc3S(=O)(=O)N2CCCOc2ccccc2)c2ccccc2n1CC(=O)O (racemic) | 1400 nM | –
10 | Cc1noc(C)c1CN1C(c2c(C)n(CC(=O)O)c3ccccc23)c2ccccc2S1(=O)=O (racemic) | 12 nM | inhibition [2]: 0%; inhibition [3]: 0%; Ki [4]: 28 nM
11 | Cc1noc(-c2ccccc2)c1CN1C(c2c(C)n(CC(=O)O)c3ccccc23)c2ccccc2S1(=O)=O (racemic) | 13 nM | –
12 | Cc1noc(C)c1CN1C(c2c(C)n(CC(=O)O)c3ccc(Cl)cc23)c2ccccc2S1(=O)=O (racemic) | 8 nM | inhibition [2]: 15%; inhibition [3]: 0%
13 | Cc1c(C2c3ccccc3S(=O)(=O)N2CCc2ccccc2)c2ccccc2n1CC(=O)O (racemic) | 220 nM | –
14 | Cc1c(C2c3ccccc3S(=O)(=O)N2CCOc2ccccc2)c2ccccc2n1CC(=O)O (racemic) | 29 nM | inhibition [2]: 0%; Ki (Thromboxane A2 receptor): 7800 nM
15 | Cc1noc(C)c1CN1C(C)(c2c(C)n(CC(=O)O)c3ccccc23)c2ccccc2S1(=O)=O (racemic) | 38 nM | –
16 | O=C(O)Cn1cc(C2c3ccccc3S(=O)(=O)N2CCc2ccccc2)c2ccccc21 (racemic) | 630 nM | –
17 | Cc1c(C2c3ccccc3S(=O)(=O)N2CCC(C)C)c2ccccc2n1CC(=O)O (racemic) | 560 nM | –
18 | Cc1c(C2c3ccccc3S(=O)(=O)N2C(C)C)c2ccccc2n1CC(=O)O (racemic) | 920 nM | –
19 | Cc1c(C2c3ccccc3S(=O)(=O)N2c2ccccc2)c2ccccc2n1CC(=O)O (racemic) | 480 nM | –
20 | Cc1c(C2NS(=O)(=O)c3ccccc32)c2cc(F)ccc2n1CC(=O)O (racemic) | 430 nM | –
21 | CN1C(c2cn(CC(=O)O)c3ccccc23)c2ccccc2S1(=O)=O (racemic) | 8100 nM | –
22 | O=C(O)Cn1cc(C2c3ccccc3S(=O)(=O)N2Cc2ccccc2)c2ccccc21 (racemic) | 1100 nM | –
23 | N#Cc1ccc2c(c1)c(C1NS(=O)(=O)c3ccccc31)cn2CC(=O)O (racemic) | 2000 nM | –
24 | Cc1c(C2NS(=O)(=O)c3ccccc32)c2ccccc2n1CC(=O)O (racemic) | 2800 nM | –
25 | Cc1c(C2c3ccccc3S(=O)(=O)N2CCO)c2ccccc2n1CC(=O)O (racemic) | 1400 nM | –
26 | CC(C)CCN1C(c2cn(CC(=O)O)c3ccccc23)c2ccccc2S1(=O)=O (racemic) | 2300 nM | –
